Measurements published in PubChem BioAssay AID493130 (Broad Institute, 2011).
Records with an inconclusive call do not appear. Calls of active or inactive are those of the source.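 How the source made its calls: active means signal-lowering compounds whose fitted half-maximal concentration is at most ten times their highest tested dose; inconclusive means flat fit between -30 and -70%, or poor fit; inactive means flat within 30%, signal rising, or potency beyond limit.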

The molecules below were run against POS-1 (Caenorhabditis elegans) binding to mex-3 RNA (assay: C. elegans POS-1 RNA interaction disruptors – biochemical, fluorescence polarization, cherry-picked samples, set 2, counter-screen for MEX-5 RNA-binding inhibitor project, dose response (AID 493130;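 further: POS-1 as maltose binding protein fusion made in E. coli with FITC RNA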)). Conditions: POS-1/mex-3 RNA fluorescence polarization, 1 h.

Structure (SMILES)	AC50
Brc1ccc(C2=CC(c3cccs3)n3ncnc3N2)cc1 (centres undefined)	1.4 µM
CCc1ccc[n+](-c2[nH]c(=O)sc2/C=N/NC([S-])=Nc2ccccc2)c1	2.54 µM
Cc1ccc(-c2cc(C(=O)Nc3ccc(S(=O)(=O)Nc4ncccn4)cc3)[nH]n2)c(O)c1C	5.29 µM
Cc1ccc(C)n1-c1ccccc1N	5.78 µM
COCCCNC(=O)c1ccc2c3c(onc13)-c1ccccc1C2=O	0.186 µM
CCCCN1C(=O)C2Cc3c([nH]c4ccccc34)CN2C1=S (centres undefined)	8.04 µM
N=C1CCC(=N)c2c1c(O)c1ccccc1c2O	5.58 µM
Cc1cc(=O)n2[nH]c(=O)c(N=Nc3ccccc3)c2[nH]1	0.306 µM
O=C1NC2=C(C(=O)CCC2)C(c2ccccc2[N+](=O)[O-])N1 (centres undefined)	> 10 µM (inactive)
CCn1c(SCc2nc3sc(C(=O)O)c(C)c3c(=O)[nH]2)nc2ccccc21	10.3 µM
O=C1CSC(=S)N1/N=C/c1cc(Br)c(O)c(Br)c1	10.2 µM
COc1ccc(-c2onc3ccc(C(C)=O)cc23)cc1	< 0.08 µM
COc1ccc(NC(=S)NNc2ccc(S(=O)(=O)Nc3ccccc3C(=O)O)cc2[N+](=O)[O-])cc1	4.53 µM
Cc1cc(-c2csc(N)n2)c(C)n1C	8.77 µM

Same assay, conditions: POS-1/mex-3 RNA fluorescence polarization, 1 h; at 10 µM (top of the series)

Structure (SMILES)	activity change, negative = inhibition
O=S(=O)(O)c1cc(O)c2c(O)c(N=Nc3cc(Cl)ccc3O)c(S(=O)(=O)O)cc2c1	inactive
COc1ccc2cc(/C=C3\SC(=S)NC3=O)c(N3CCOCC3)nc2c1	inactive
Cc1ccc(C(=O)N/C(=C\c2ccc(-c3cccc([N+](=O)[O-])c3)o2)C(=O)NCCCN(C)C)cc1	inactive
COc1cc(C(=O)NC(=S)NNC(=O)c2cnccn2)cc(OC)c1OC	inactive
Cn1c(=O)n(C)c2cc(/C=N/N=C3/NC(=O)C(CC(=O)O)S3)ccc21 (centres undefined)	inactive
O=C(O)COc1ccc(Br)cc1C(c1c(C(=O)O)[nH]c2ccccc12)c1c(C(=O)O)[nH]c2ccccc12	inactive
O=c1[nH]cnc2c1C(c1ccccc1)c1c(nc[nH]c1=O)O2	inactive
Cc1nnc(SCc2nc3sc4c(c3c(=O)[nH]2)CCCC4)n(N)c1=O	inactive
COc1ccc(C(=O)N2C(=S)NC(=O)/C2=C\c2ccc(C)cc2)cc1	inactive
CC(=O)Nc1ccc(/C=N/NC(=O)CNS(=O)(=O)c2ccccc2)cc1	inactive
COc1c(O)ccc(/C=C(\C#N)c2nc3ccccc3[nH]2)c1[N+](=O)[O-]	inactive
O=C(NNc1ccccc1)C(=O)NNS(=O)(=O)c1ccc(CCCl)cc1	inactive
CCCCN(C(=O)c1ccc([N+](=O)[O-])o1)c1c(N)n(CCCC)c(=O)[nH]c1=O	inactive
CCn1c(C)c(C(C)=O)c(N2CCN(c3ccccc3)CC2)nc1=S	inactive
CC(C)C(=O)OCC(=O)Nc1ccc2c(c1)CCC2	inactive
C#CCOCCOCCOCCNc1nc(N2CCN(C(=O)[C@H]([C@@H](C)O)n3cc(CCCCN)nn3)CC2)nc(N2CCN(C(=O)[C@H](C)n3cc(CCCN=C(N)N)nn3)CC2)n1	inactive
Cc1ccc2oc(=O)c(/C=C(\O)c3ccco3)nc2c1	inactive
Cc1cccnc1Nc1nc(-c2ccc(O)cc2O)cs1	inactive
Cc1ccc(O)c(-c2cc(C(=O)Nc3ccc(S(=O)(=O)Nc4nc(C)cc(C)n4)cc3)[nH]n2)c1	inactive
COc1ccc(CC(=O)NNc2ncnc3c2cnn3C)cc1	inactive
Cc1cc(/C=C2/C(=N)N3C(=NC2=O)SN=C3S(C)(=O)=O)c(C)n1-c1ccc(F)cc1	inactive
Nc1cnccc1C(=O)O	inactive
CCS(=O)(=O)c1ccc2oc(=O)c(/C=C(\O)c3ccc(Cl)cc3)nc2c1	inactive
CN(C)C1C(=O)C(C(N)=O)=C(O)C2(O)C(=O)C3=C(O)c4c(O)cccc4C(C)(O)C3CC12 (centres undefined)	inactive
CC1=NN(C(N)=S)C(=O)C1N=Nc1ccccc1C (centres undefined)	inactive
CCN(CC)c1ccc(N=Cc2c(O)n(-c3ccccc3C)c(=O)[nH]c2=O)cc1	inactive
CCOc1ccc(/C=N/n2c(C)nc3ccccc3c2=O)cc1	inactive

Structure (SMILES)	activity change, negative = inhibition
O=C(NC(=S)NNS(=O)(=O)c1ccccc1)c1ccc([N+](=O)[O-])cc1	inactive
CN1C(=O)C(=Cc2sc(=O)n(-c3ccccc3)c2N(C)C)C(=O)N(C)C1=O	inactive
COc1cccc(NCc2cc(=O)oc3cc(C)c(C(C)C)cc23)c1	inactive
O=C(NNc1ncnc2c1cnn2-c1ccc(F)cc1)c1ccco1	inactive
CN1C(=O)/C(=C/c2ccco2)SC1=Nc1cccc(C(=O)O)c1	inactive
CCOc1c(O)ccc(/C=C2\SC(=S)NC2=O)c1[N+](=O)[O-]	inactive
NC(=O)c1cccc2cc3ccccc3cc12	inactive
Cc1cc(C)cc(NC(=O)N(C)Cc2ccccc2)c1	inactive
COCCNc1nnc(SCC(=O)NNC(=O)c2ccc([N+](=O)[O-])cc2)s1	inactive
COC(=O)c1ccc(N2NC(=O)/C(=C/c3ccc(-c4ccc(Cl)c(C(=O)O)c4)o3)C2=O)cc1	inactive
COC(=O)c1cc(O)c(O)c(O)c1	inactive
CC1=CC2=C(OC1N(C)C)c1cccc3cccc(c13)C2=O (centres undefined)	inactive
O=c1[nH]c2ccccc2n1Cc1ccc(Cl)cc1	inactive
CC[N+](C)(CC)CCCOC(=O)C(O)(c1ccccc1)C1CCCCC1 (centres undefined)	inactive
O=C1c2cccc3cccc(c23)C(=O)N1Cc1ccccc1	inactive
C#CCN1C(=O)S/C(=C\c2ccc(N3CCOCC3)cc2C)C1=O	inactive
COc1ccc(NC(=O)c2cccs2)cn1	inactive
O=C(O)CSc1ncnc2nc[nH]c12	inactive
CN(C)c1ccc(/C=C/c2nc3ccccc3c(=O)[nH]2)cc1	inactive
Cn1ncc2c(NNC(=O)c3ccccc3Cl)ncnc21	inactive
COc1ccc(/C=C2\C(=O)NC(=S)N2C(=O)c2ccc(C)cc2)cc1	inactive
CCCCN1C=CC(=C2C(=O)c3ccccc3C2=O)C=C1	inactive
O=C(CCc1ccccc1)N/N=C\c1cc2c(cc1Br)OCO2	inactive
CCOc1ccc(/C=C2\SC(=S)N(Nc3ccccc3)C2=O)cc1OC	inactive
COc1cccc(C2C=C(c3cccs3)Nc3ncnn32)c1OC (centres undefined)	inactive
Oc1cccc(NC(=S)N=Nc2c(O)[nH]c3ccc(Br)cc23)c1	inactive
CCOC(=O)C1C(=O)C=C(/C=C/c2ccc(N(C)C)cc2)CC1c1ccccc1 (centres undefined)	inactive

Structure (SMILES)	activity change, negative = inhibition
CC1(C)CC(=O)C2=C(C1)OC(N)=C(C#N)C2c1ccccc1[N+](=O)[O-] (centres undefined)	inactive
CC1(N2CCOCC2)CC2(O)C(=[N+]1[O-])CCc1c2no[n+]1[O-] (centres undefined)	inactive
Oc1c(C=Nc2ccccc2)sc(=S)n1Cc1ccccc1	inactive
Oc1ccc(/C=N/Nc2ncnc3nc[nH]c23)cc1	inactive
C=CCn1c(O)c(N=NC(=S)Nc2cccc(C)c2)c2ccccc21	inactive
O=C(NNC(=S)NC(=O)c1ccccc1[N+](=O)[O-])c1ccccc1[N+](=O)[O-]	inactive
CCOC(=O)c1ccc(N=Nc2c(C)c(C#N)c(O)[nH]c2=O)cc1	inactive
CC(C)(C)N(CC#CCC(O)(c1ccccc1)c1ccccc1)CCO	inactive
CC1CN(c2nc3ccccc3nc2C(C#N)C(=O)NCc2ccc3c(c2)OCO3)CC(C)O1 (centres undefined)	inactive
O=c1[nH]c(=S)n(-c2ccccc2F)c(O)c1C=Nc1ccc(N2CCOCC2)cc1	inactive
CCOC(=O)CCCc1sc(N)nc1-c1[nH]c(=O)[nH]c1C	inactive
Cc1nc2ccc(NC(=O)NC(=O)c3c(Cl)cccc3Cl)cc2o1	inactive
Cc1ccc(-c2nc(C=Nc3ccccc3)c(O)o2)cc1	inactive
O=C(O)c1ccc2c(c1)ncn2C1CCCCC1	inactive
Cc1c(C=O)c(Cl)n(C)c(=O)c1C#N	inactive
CCn1c(O)c(N=NC(=O)CNC(=O)/C=C/c2ccco2)c2ccccc21	inactive
O=C(O)CCC(=O)NNc1ncnc2ccccc12	inactive
Cc1ccc(C)c(NC(=O)CCC(=O)NNC(=S)Nc2ccccc2)c1	inactive
CC(=O)c1cc(NC(=O)c2ccc([N+](=O)[O-])cc2)c(=O)oc1C	inactive
O=[N+]([O-])c1cc(S(=O)(=O)c2ccc(O)c([N+](=O)[O-])c2)ccc1O	inactive
Cc1cc(C)c[n+](-c2nc([O-])sc2C=O)c1	inactive
Nc1ccc2nc[nH]c2c1	inactive
Cc1cccc(/C=C(\C#N)C(=O)Nc2ccccn2)c1	inactive
O=C(CCN1C(=O)/C(=C\c2ccco2)SC1=S)Nc1ccc(C(=O)O)c(O)c1	inactive
Cc1nc2ccc3nc(NC(=O)c4ccc5c(c4)OCCO5)sc3c2s1	inactive
Cc1c(N=NC2=C(O)CCCC2=O)c(=O)n(-c2ccccc2)n1C	inactive
